Tests used:
[1] = system: NCI 60 human tumor cell line panel (Homo sapiens); assay: In vitro inhibitory activity against NCI 60 human tumor cell line panel
[2] = system: Panel (Carcinoma cell lines); assay: In vitro antitumor activity against human tumor cancer cell lines; type: functional

Compound	GI50 [1] [nM]	GI50 [2] [nM]
COc1ccc(/C=C/c2cc(O)c(OC)c(OC)c2)cc1OC	> 100000	
COc1ccc(/C=C\c2cc(OC)c(OC)c(OC)c2)cc1O [COMBRETASTATIN A4]	3.2	
COc1ccc(/C=C\c2cc(OC)c3c(c2)OCO3)cc1O [Combretastatin A-2]		31.6
COc1ccc(/C=C\c2cc(OC)c(OC)c(OC)c2)c(O)c1O [COMBRETASTATIN A-1]		16.2
COc1ccc(/C=C\c2cc(O)c(OC)c(OC)c2)cc1OC	1650	
